The results in this text go back to patent US20210381060A1, “CANCER SPECIFIC IMMUNOTHERAPEUTIC TARGETS GENERATED BY CHEMOTHERAPEUTIC DRUG TREATMENT” (Health Research, Inc., priority 2018, published 2021).

For one data set, the system named is Meth A tumor cells. Briefly: Tumor challenge with 5FU-treated or untreated Meth A cells, tumor growth. Conditions: for growth of 5-FU treated vs un-treated Meth A cells in vivo (AUC): FIG. 3A, in vitro 5-FU treatment alone, P=0.07; for growth of 5-FU-treated vs un-treated Meth A cells (AUC) in mice previously immunized with 5-FU-treated 4T1 cells: challenge one week after 4T1, P=0.003. The class given is in vivo, BALB/cJ mice. How it is done:
(§1) FIG. 3. BALB/cJ mice were challenged (on the left flank) at day 0 with 150,000 5FU- treated or untreated 4T1 tumor cells. Seven days after the first tumor challenge, they were challenged (on the right flank) with 95,000 5FU- treated or untreated Meth A tumor cells and growth of both tumors was measured. […] Each line represents tumor growth in a single mouse. […] B. (Top panel) 4T1 (un-treated or in vitro-5FU treated) growth curves in 5FU-treated mice (5FU i.p. 100 mg/kg at day -7, 50 mg/kg at day 0 and 20 mg/kg every three days after the first tumor challenge). […] (Bottom panel) The same mice as the top panel were challenged with un-treated or 5FU-treated Meth A cells, one week after challenge with 4T1 cells.
(§2) As known in the art, 4T1 cells are a breast cancer cell line derived from the mammary gland tissue of mouse. Meth A cancer cells are methyl-cholantrene-induced mouse sarcoma cells. […] This Example analyzes whether treatment with 5-FU generates new antigenic entities (such as CiPAS), and if treatment of both cell types produces the same antigens in both cells. If this process occurs, the antigens should be processed and presented identically in both cells of the BALB/c haplotype.
(§3) First, we tested if treatment of cells in vitro with 5-FU, in and of itself, makes the cancer cells grow differently because of cell death, or another phenomenon.

In a further data set the test system is MDA-MB-231. Briefly: RNA-Seq detection of CiPAS (retained-intron polypeptides). The class given is cell-based, human. The source says:
(§4) The following Table 1 provides predicted-CiPAS and includes polypeptide sequences encoded by introns detected with high confidence in RNA-Seq generated from MDA-MB-231 and MCF10A p53−/− KO cells treated with 5-FU and caffeine and not detected in cells treated with caffeine alone. 38 and 76 CiPAS were detected in MDA-MB-231 and MCF10A p53−/− KO cells, respectively, including 18 shared CiPAS. Certain representative and non-limiting chemo-neoepitopes encoded by the CiPaS sequences are shown in bold, with overlapping amino acids in italics.

The subject of another data set is MCF10A p53−/− KO cells. The data set is described as above. The class given is cell-based, human. The conditions noted are these: cells treated with 5-FU and caffeine, not detected with caffeine alone.
Excerpt: as §4

Another data set has as its system MDA-MB-231 p53−/−. Briefly: RT-PCR analysis of intron retention after 5-FU exposure. The class given is cell-based, human. The conditions noted are these: 300 μM 5-FU for 24 h. How it is done: (§5) FIG. 2. […] P53 mutant MDA-MB-231 cells, p53wt MCF10A cells, and MCF10A cells with biallelic frameshift mutation in the p53 gene were treated or untreated with 300uM of 5-FU for 24 h. NMD was inhibited or not with 10 mM caffeine for 4 h before cytoplasmic RNA isolation. “*” symbols indicate RT-PCR amplicons with retained introns.
(§6) The following breast cell lines were used: MDA-MB-231 p53−/−, MCF10A p53+/+ cell line and the derivative of MCF10A p53−/−, all treated or untreated with 300 μM of 5-FU for 24 h. In addition, the NMD pathway was inhibited or not inhibited with caffeine for 4 h before cytoplasmic RNA isolation in order to detect the mRNA species that are degraded due to stop codons contained within retained introns.

The next data set deals with MCF10A p53−/−. Described as above. The class given is cell-based, human. Conditions: 300 μM 5-FU for 24 h. The protocol: as §5, §6
The test system of the next data set is 4T1 tumor cells. Briefly: Tumor challenge with 5FU-treated or untreated 4T1 cells, tumor growth. The format is in vivo, BALB/cJ mice. The conditions noted are these: FIG. 3B top, 5FU-treated mice (i.p. 100 mg/kg day -7, 50 mg/kg day 0, 20 mg/kg every three days). How it is done: as §1, §2, §3
For another data set, the system named is MCF10A p53+/+ cell line. In words: RT-PCR of cell cycle progression gene mRNA after 5-FU exposure. The class given is cell-based, human. Conditions: 300 μM 5-FU for 24 h. The protocol: as §5, §6

As to `O=c1[nH]cc(F)c(=O)[nH]1` [5-FU, 5-fluorouracil], the “growth of 5-FU treated vs un-treated Meth A cells in vivo (AUC)” value in the data set with Meth A tumor cells is on record as “grow identically”; in the data set with Meth A tumor cells (listed as 5FU), “grow similarly”. The “slower growth of 5-FU-treated Meth A cells in mice previously challenged with 5-FU-untreated 4T1 cells” value with Meth A tumor cells (FIG. 3B bottom) is reported as “not seen”. Also, the “growth of 5-FU-treated vs un-treated Meth A cells (AUC) in mice previously immunized with 5-FU-treated 4T1 cells” value in the data set with Meth A tumor cells (FIG. 3B bottom) was “grow more slowly”; in the data set on Meth A tumor cells (FIG. 3B bottom, listed as 5FU), “significantly lower”. Moreover, the “number of CiPAS detected” value in the data set on MDA-MB-231 (cells treated with 5-FU and caffeine, not detected with caffeine alone) was found to be 38 CiPAS; with MCF10A p53−/− KO cells, 76 CiPAS. Further, the “number of shared CiPAS” value with MDA-MB-231 (shared between MDA-MB-231 and MCF10A p53−/− KO cells, 5-FU and caffeine) was determined as 18 CiPAS. The results for the “extent of retention of 6th intron of the CCNE2 gene” value with MDA-MB-231 p53−/− and with MCF10A p53−/− were “only part of the 6th intron of the CCNE2 gene is retained” and “the whole intron is retained”, respectively. Besides, the “intron retention in MCM10 and CCNE2 genes in response to 5-FU” value in the data set on MDA-MB-231 p53−/− (only in cells with mutant p53) and in the data set with MCF10A p53−/− (only in cells with mutant p53) was “intron retention” in each case. Besides, the figures for the “growth of 5-FU treated vs un-treated 4T1 cells in vivo (AUC)” value in the data set on 4T1 tumor cells and in the data set with 4T1 tumor cells (listed as 5FU) were “grow essentially identically” and “grow the same”, respectively. Moreover, the “MCM10 mRNA in response to 5-FU” value with MCF10A p53+/+ cell line (data not shown) is recorded as “repressed”. In addition, in the data set on MCF10A p53+/+ cell line (only in MCF10A cells with p53+/+), the “transcription of the mRNA of the CCNE2 cell cycle progression gene in response to 5-FU” value is “repressed”. In the data set with 4T1 cells, the “number of genes with overexpressed introns in 5-FU treated 4T1 samples” value is reported as 804 genes. Moreover, in the data set on 4T1 cells, the “number of introns overexpressed in 5-FU treated 4T1 samples” value was determined as 991 introns.
